What was measured:
IDO1 = biological target: T1, IDO1 (Homo sapiens, UniProt P14902); test: IDO1 inhibitory activity (IDO1 Fluorogenic Inhibitor Screening Assay Kit); type: biochemical; conditions: compound solutions of 0.6 to 200 μmol/L added
T1 construct: His-tag; purchased BPS Bioscience
Description: The evaluation of IDO1 inhibitory activity was carried out using the IDO1 Fluorogenic Inhibitor Screening Assay Kit (BPS Bioscience). Specifically, IDO1 Fluorogenic Reaction Solution was dissolved, of which 180 μL were added to each well. Then, 10 μL of the compounds at the respective concentrations of 0.6, 2, 6, 20, 60 and 200 μmol/L were added thereto. Further, after adding 10 μL of IDO1 His-Tag solution thereto, and the mixture thereof was incubated at room temperature for 1 hour, and then 20 μL of Fluorescence Solution was added thereto, and the mixture thereof was incubated at 37° C. for 4 hours. After standing them at room temperature for 10 minutes, the fluorescence was measured using a microplate reader (excitation: 400 nm, emission: 510 nm).

IRF pathway = test: Verification of STING agonistic activity (IRF pathway in cells of PCT/EP2017/59781); type: cell-based; conditions: cells described in PCT/EP2017/59781, about 24 hours incubation
Description: The cells described at lines 37-39 on page 18 in the publication of PCT application with application number PCT/EP2017/59781 were suspended in RPMI medium to prepare 2×10^6 cells/mL cell suspension. 50 μL of cell suspensions were dispensed into a 96-well plate, to which 50 μL of 6 to 20,000 nM compound solutions were further added, followed by incubation at 37° C. for about 24 hours. 10 μL of the cell suspensions were collected from each well, which were mixed with 50 μL of Quanti-luc (Invivogen), and then the activity of the IRF pathway was measured by detecting luminescence using a microplate reader.

[1] = test system: colon cancer cell line MC38; test: Anti-tumor effect in subcutaneously colon cancer cell line MC38 tumor-bearing mouse model (Example 17); type: in vivo, mice (C57/BL6); conditions: 3 mg/kg, administered 7 days after transplantation, measured until Day 26
Description: Seven days after transplantation, the subcutaneously MC38 tumor-bearing mice were grouped based on tumor volume, and the Vehicle group (n=8) and group to which the compound shown in Example 1 (3 mg/kg, n=6) was administered were set. The changes in tumor volume were continuously measured until 26 days after transplantation (Day 26). The tumor volume was calculated by the following formula:
[Tumor volume (mm^3)]=[major axis (mm)]×[minor axis (mm)]^2×0.5

[2] = test system: BTK, KDR, each subtype of PKCa to t, each CDK of CDK2 to 9, FAK, TIE2, RAF1 and BRAF; test: Inhibitory activity against various kinases (mobility shift, LabChip); type: biochemical; conditions: 4 μmol/L test substance solution (4 times the final concentration)
Description: 4 μmol/L of the test substance solution (the compound pertaining to the present invention produced in Example 1) (at 4 times the final concentration) was prepared by dissolving it to the assay buffer (20 mmol/L HEPES, 0.01% Triton X-100, 1 mmol/L DTT, pH 7.5). 4 μmol/L of the substrate/ATP/metal solution (at 4 times the final concentration) was prepared by dissolving it to the kit buffer (20 mmol/L HEPES, 0.01% Triton X-100, 5 mmol/L DTT, pH 7.5). Various kinase solutions at twice the final concentration were prepared by dissolving them to the assay buffer. 5 μL of the test substance solution, 5 μL of the substrate/ATP/metal solution and 10 μL of the kinase solution were mixed in wells of a polypropylene 384-well plate, and the mixture thereof was reacted at room temperature for 1 to 5 hours. The reaction was stopped by adding 70 μL of the termination buffer (QuickScout Screening Assist MSA; Carna Biosciences). The substrate peptide and phosphorylated peptide in the reaction solution were separated and quantified by LabChip system (Perkin Elmer). The kinase reaction was evaluated based on the product ratio (P/(P+S)) calculated from the peak height (S) of the substrate peptide and the peak height (P) of the phosphorylated peptide. The various kinases used in this evaluation are as follows: BTK, KDR, each subtype of PKCa to t, each CDK of CDK2 to 9, FAK, TIE2, RAF1 and BRAF.

[3] = Conversion of a prodrug to its active body (Compound B) in human plasma; type: in vitro ADME; conditions: 1 μmol/L, 37° C., 60 minutes
Description: (§1) The solutions of the example compounds in Table 2 below (50 μmol/L, 50% acetonitrile with 5% DMSO) were added to plasma (245 μL), respectively, such that the final concentrations thereof become 1 μmol/L. After keeping them the temperature at 37° C. for 60 minutes, 40 μL of the reaction solutions were taken therefrom, and added to 200 μL of acetonitrile/ethanol (7:3) containing Candesartan (internal standard).
(§2) The concentration of the compound prepared in Example 3 (Compound B) in the plasma resulting from the above reaction was analyzed by LC-MS/MS according to the following method.
(§3) The whole amount was transferred to a filter plate for protein removal and filtered by suction, and the filtrate thereof was diluted 2-fold with water. [LC column] Shim-pack XR-ODSII 2.0 mm ID×75 mm (Shimadzu Corporation) [LC condition] Column temperature: 40° C. Mobile phase: A: 0.2% formic acid in 5 mM ammonium acetate solution; and
(§4) [MS conditions] Electrospray, positive mode, multiple reaction monitoring; MS monitor ion: Compound B: m/z353.0→m/z311.2, DP: 80, CE: 35; and Candesartan (internal standard): m/z309.1→m/z163.0, DP: 71, CE: 21.
(§5) A regression formula was calculated from the peak area ratio (peak area of Compound B/peak area of Candesartan) of the real sample and the standard sample for the calibration curve in the same matrix, and the peak area ratio of the real sample was substituted into the regression formula to calculate the quantitative value. 60 minutes later, the concentration of Compound B in the sample was compared, and the conversion rate (%) thereof was calculated using the following formula:
(§6) Conversion rate (%)=Concentration of Compound B in the sample after 60 minutes (μmol/L)×100

[4] = Conversion of a prodrug to its active body (Compound B) in mouse plasma; type: in vitro ADME; conditions: 1 μmol/L, 37° C., 60 minutes
Description: as §1, §2, §3, §4, §5, §6

[5] = test system: melanoma cell line B16F10; test: Combination experiments in subcutaneously melanoma cell line B16F10 tumor-bearing mice model (Example 23); type: in vivo, mice (C57/BL6); conditions: until Day 30
Description: • Vehicle and control antibody (rIgG1) (n=8 or 6), • Compound A (0.3 mg/kg) and control antibody (rIgG1) (n=6), • Anti-PD-1 antibody 4H2 (10 mg/kg (but 20 mg/kg only in the first dose only); n=6), and • Compound A (0.3 mg/kg) and anti-PD-1 antibody 4H2 (10 mg/kg (but 20 mg/kg only for the first dosage)) (n=6).
In the Combination Experiment 1, Compound A was administered once 10 days after transplantation while the anti-PD-1 antibody 4H2 and control antibody were administered 4 times every 6 days since 10 days after transplantation, respectively.
• Vehicle and control antibody (rIgG1) (n=8 or 6), • Compound A (0.3 mg/kg) and control antibody (rIgG1) (n=6), • Anti-VEGFR2 antibody DC101 (BioXCell) (10 mg/kg; n=6), and • Compound A (0.3 mg/kg) and anti-VEGFR2 antibody DC101 (10 mg/kg) (n=6).
In the Combination Experiment 2, Compound A was administered 4 times every 7 days since 10 days after transplantation while anti-VEGFR2 antibody DC101 and control antibody were administered 7 times every 3 or 4 days once 10 days after transplantation, respectively.
Vehicle and Compound A were administered intravenously while control antibody, anti-PD-1 antibody, and anti-VEGFR2 antibody were administered intraperitoneally, respectively.
FIGS. 9 and 10 show results thereof.

[6] = test system: colon cancer cell line MC38; test: Compound A and anti-PD-1 antibody 4H2 in MC38 tumor-bearing mouse model (Example 21); type: in vivo, mice (C57/BL6)
Description: Compound A was administered intravenously once 8 days after transplantation, and the anti-PD-1 antibody 4H2 was administered intraperitoneally 4 times every 6 days since 8 days after transplantation. • Vehicle (n=9), • Compound A (0.1 mg/kg; n=9), • Anti-PD-1 antibody 4H2 (10 mg/kg (but 20 mg/kg only in the first dosage); n=9), and • Compound A (0.1 mg/kg) and anti-PD-1 antibody 4H2 (10 mg/kg (but 20 mg/kg only in the first dosage); n=9).
FIGS. 6 and 7 show results thereof.

[7] = test system: human acute myeloid leukemia cell line MV4-11; test: Anti-tumor effect in subcutaneously tumor model bearing human acute myeloid leukemia cell line MV4-11; type: in vivo; conditions: dosages of 1.0 mg/kg and 3.0 mg/kg; immunodeficient mice; until Day 28
Description: They were grouped based on tumor volume 6 days after transplantation, and Compound A (0.3, 1.0, and 3.0 mg/kg, respectively; n=8) and Vehicle (n=8) were administered to the subcutaneously tumor-bearing mice, respectively.

T1 sequence (P14902 whole entry): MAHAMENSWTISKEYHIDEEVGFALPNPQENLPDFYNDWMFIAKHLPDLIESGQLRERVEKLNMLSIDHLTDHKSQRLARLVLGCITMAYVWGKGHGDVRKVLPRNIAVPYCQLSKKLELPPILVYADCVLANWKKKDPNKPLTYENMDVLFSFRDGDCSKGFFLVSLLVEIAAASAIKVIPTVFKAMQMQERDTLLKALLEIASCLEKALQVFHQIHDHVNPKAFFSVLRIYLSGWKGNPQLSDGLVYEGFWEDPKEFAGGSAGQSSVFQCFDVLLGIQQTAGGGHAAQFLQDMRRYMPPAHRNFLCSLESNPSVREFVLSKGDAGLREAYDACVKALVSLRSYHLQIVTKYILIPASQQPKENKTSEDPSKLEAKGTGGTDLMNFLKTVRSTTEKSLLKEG

IDO1 inhibitory activity (IDO1)	Plasma conversion rate Human [3]	Plasma conversion rate Mouse [4]	Compound	IRF activating effect (IRF pathway)	tumor growth (tumor volume) [1]	inhibitory activity against various kinases [2]	anti-tumor effect of anti-VEGFR2 antibody ([5]; Compound A 0.3 mg/kg 4 times every 7 days combined with anti-VEGFR2 antibody DC101 10 mg/kg)	anti-tumor effect of anti-PD-1 antibody ([5]; Compound A 0.3 mg/kg once combined with anti-PD-1 antibody 4H2 10 mg/kg (20 mg/kg first dosage))	tumor-reducing effect ([6]; Compound A 0.1 mg/kg combined with anti-PD-1 antibody 4H2, 28 days after transplantation)	anti-tumor effect observed with anti-PD-1 antibody alone ([6]; Compound A 0.1 mg/kg i.v. once combined with anti-PD-1 antibody 4H2 10 mg/kg (20 mg/kg first dosage))	number with complete tumor remission ([6]; combination of Compound A (0.1 mg/kg) and the anti-PD-1 antibody)	tumor growth (tumor volume) [7]
no IDO1 inhibitory activity	–	–	COC(=O)c1cc(-c2ncc(-c3cn[nH]c3)c3onc(N)c23)c(F)cc1N [Example 1, methyl 2-amino-5-(3-amino-7-(1H-pyrazol-4-yl)isoxazolo[4,5-c]pyridin-4-yl)-4-fluorobenzoate]	no IRF activating effect	almost completely suppressed the tumor growth	no significantly inhibit activities	–	–	–	–	–	–
–	+ + +	+ + +	CC(=O)c1cc(-c2ncc(-c3cnn(COP(=O)(O)O)c3)c3onc(N)c23)c(F)cc1N [Example 10(1), (4-(4-(5-acetyl-4-amino-2-fluorophenyl)-3-aminoisoxazolo[4,5-c]pyridin-7-yl)-1H-pyrazol-1-yl)methyl dihydrogen phosphate]	–	–	–	enhanced	enhanced	showed the tumor-reducing effect	enhanced	5 out of 9	suppressed tumor growth
